Assay results from patent US20220073874A1, “METHODS FOR ENHANCING DIRECT REPROGRAMMING OF CELLS” (UNIVERSITY OF SOUTHERN CALIFORNIA, priority 2020, published 2022).

How the values were obtained:
[1] = system: mouse embryonic fibroblasts (MEFs); assay: biotinylated-trimethylpsoralen (bTMP) immunofluorescence, negative DNA supercoiling; format: cell-based; settings: 100 μM for 15 minutes (FIG. 12A-B)
Protocol: Biotinylated-trimethylpsoralen (bTMP) Immunofluorescence. One day after addition of N3 media (and without addition of glial cultures), cells were treated with 1 μM aphidicolin for 1.5-2 hours in N3 media. For control experiments, MEFs were treated with or without 100 μM bleomycin prior to incubation with psoralen. Then cells were incubated with 0.3 mg/mL EZ-Link Psoralen-PEG3-Biotin (Thermo Cat. No: 29986) for 15 minutes. Cultures were then exposed to 3 kJ m-2 of […] light (Fotodyne UV Transilluminator 3-3000 with 15W bulbs) for 15 minutes at room temperature in the dark followed by 3 washes in PBS. Then cells were fixed with cold 70% ethanol for 30 minutes at 4° C. followed by another 3 washes in PBS. Cells were then incubated with Alexa Fluor 594 Streptavidin (Thermo Cat. No: 532356) for one hour at room temperature in the dark, washed with PBS 3 times, and then stained with Hoescht (1:1000) for 10 minutes at room temperature in the dark. Coverslips were mounted onto glass slides using lmmuMount and imaged using the Zeiss LSM 800 confocal microscope.

[2] = system: mouse embryonic fibroblasts (MEFs); assay: EU incorporation (transcription rate) by flow cytometry; format: cell-based; settings: Control-Pure and 6FDDRR cells, 4 dpi (FIG. 2L)
[3] = system: mouse embryonic fibroblasts (MEFs); assay: viable cells by FSC and SSC profile via FACS; settings: 6FDDRR, 4 dpi (FIG. 9L)
[4] = system: mouse embryonic fibroblasts (MEFs); assay: EdU incorporation (DNA synthesis, S phase) by flow cytometry
[5] = system: mouse embryonic fibroblasts (MEFs); format: cell-based; settings: 6FDD condition, 14 dpi (FIG. 9G)

bleomycin
biotinylated TMP intercalation [1]: decreased

C[C@@]1(CO)[C@H](O)CC[C@@]2(C)[C@H]1CC[C@H]1C[C@@H]3C[C@@]12CC[C@]3(O)CO [Aphidicolin, aphidicolin]
transcription rates [2]: increased
cell count (total viable cells) [3]: only slightly reducing
percent of cells in S phase ([4]; EdU incorporation at 4 dpi, 1 μM for 18 hours, 6FDDRR (FIG. 9J-K)): dramatically reduced
EdU incorporation ([4]; uninfected MEFs, 10 μM for 2 hr (FIG. 12N)): did not incorporate EdU

CO[C@@]12[C@H](COC(N)=O)C3=C(C(=O)C(C)=C(N)C3=O)N1C[C@@H]1N[C@@H]12 [mitomycin C]
iMN conversion [5]: impaired
